{"source": "patent US20020106705A1", "about": "“Detection method for monitoring beta tubulin isotype specific modification” (Tularik Inc., priority 1999, published 2002)", "key": {"[1]": {"test_system": "β-tubulin in white blood cells", "assay": "Western blot of white blood cells from rats after compound 1 infusion", "assay_type": "in vivo, rat", "conditions": "3 h infusion of compound 1 sodium salt, 20 mg/kg", "method": "(§1) White blood cells (“WBC”) were isolated from blood samples (5 ml) taken immediately after a 3 h infusion of compound 1 sodium salt from rats or a human patient treated at 20 mg/kg and 220 mg/m2, respectively, as follows. The samples were mixed with 5 ml of PBS and layered on a Ficoll cushion (10 ml, “Lymphoprep” (density is ˜1.077 and osmolality 280 mOsm, Gibco/BRL). After centrifugation (1000 rpm, 30 min (Sorvall RC3C centrifuge)) at room temperature WBC were isolated from the cushion and the sample was diluted 1:5 with PBS. After centrifugation (2000 rpm for 10 min) the liquid was discarded and the cell pellet was resuspended in 1 ml of PBS. The solution was transferred to an Eppendorf tube and the cells were collected by centrifugation (3000 rpm, 5 min). After the supernatant was discarded the cell pellet was stored at −80° C. or processed as follows. Rat WBC-pellet was resuspended in 15 μl of IEF-buffer and mixed with 15 μl of 2× SDS sample buffer. The human sample was mixed immediately with an equal volume (10 μl) of SDS sample buffer. Protein samples ([…], human; 2 μl, rat) were analyzed by SDS-PAGE and subjected to western blot analyzes as outlined above."}, "[2]": {"test_system": "β-tubulin in white blood cells", "assay": "Western blot of white blood cells from a human patient after compound 1 infusion", "assay_type": "in vivo", "method": "as §1\nAs a standard 10 μg of purified brain tubulin was mixed with […] of BRB80 buffer and incubated with 10 μl of ^3H-compound 1 (10 μCi) in a 500 μl reaction at […] for 2 h. […]"}, "β-tubulin isotypes": {"test_system": "β-tubulin isotypes", "conditions": "cited from earlier work"}, "cellular tubulin": {"test_system": "cellular tubulin", "conditions": "cited from earlier work"}}}
{"smiles": "COc1ccc(NS(=O)(=O)c2c(F)c(F)c(F)c(F)c2F)cc1F", "note": "[compound 1, 2-fluoro-1-methoxy-4-pentafluorophenylsulfonamidobenzene]", "values": [{"measurement": "β-tubulin modification in white blood cells (western blot with 2C1H7)", "setting": "[1]", "value": "a protein consistent of the size of β-tubulin was visible"}, {"measurement": "amount of loaded tubulin modified by compound 1", "setting": "[2]; human WBC sample, compared with 3H-compound 1-β-tubulin standard curve", "value": "~7.5", "unit": "fmol"}, {"measurement": "β-tubulin modification in white blood cells (western blot with 2C1H7)", "setting": "[2]; human patient, 3 h infusion of compound 1 sodium salt, 220 mg/m2", "value": "a protein consistent of the size of β-tubulin was visible"}, {"measurement": "modification of other cellular proteins", "setting": "β-tubulin isotypes", "value": "no other cellular proteins are modified"}, {"measurement": "covalent modification of β-tubulin isotypes", "setting": "β-tubulin isotypes; five known β-tubulin isotypes, β1, β2, β4 have Cys239, β3 and β5 have serine", "value": "binding is restricted to those β-tubulin isotypes that have a cysteine residue at amino acid position 239 in β-tubulin"}, {"measurement": "binding to cellular tubulin", "setting": "cellular tubulin", "value": "time- and concentration-dependent"}]}
